Experimental data taken from ChEMBL document CHEMBL1145498, “A systematic interaction map of validated kinase inhibitors with Ser/Thr kinases” (Proc Natl Acad Sci U S A, 2007).

How the values were obtained:
[1] = target: Proto-oncogene tyrosine-protein kinase Src (Homo sapiens, UniProt P12931); assay: Inhibition of Src; conditions: read-out: IC50
[2] = target: Calcium/calmodulin-dependent protein kinase type II subunit alpha (Homo sapiens) (UniProt Q9UQM7)
[3] = target: Calcium/calmodulin-dependent protein kinase kinase 2 (Homo sapiens, UniProt Q96RR4)
Sequence of Calcium/calmodulin-dependent protein kinase kinase 2 (Q96RR4 2-588 limits assumed): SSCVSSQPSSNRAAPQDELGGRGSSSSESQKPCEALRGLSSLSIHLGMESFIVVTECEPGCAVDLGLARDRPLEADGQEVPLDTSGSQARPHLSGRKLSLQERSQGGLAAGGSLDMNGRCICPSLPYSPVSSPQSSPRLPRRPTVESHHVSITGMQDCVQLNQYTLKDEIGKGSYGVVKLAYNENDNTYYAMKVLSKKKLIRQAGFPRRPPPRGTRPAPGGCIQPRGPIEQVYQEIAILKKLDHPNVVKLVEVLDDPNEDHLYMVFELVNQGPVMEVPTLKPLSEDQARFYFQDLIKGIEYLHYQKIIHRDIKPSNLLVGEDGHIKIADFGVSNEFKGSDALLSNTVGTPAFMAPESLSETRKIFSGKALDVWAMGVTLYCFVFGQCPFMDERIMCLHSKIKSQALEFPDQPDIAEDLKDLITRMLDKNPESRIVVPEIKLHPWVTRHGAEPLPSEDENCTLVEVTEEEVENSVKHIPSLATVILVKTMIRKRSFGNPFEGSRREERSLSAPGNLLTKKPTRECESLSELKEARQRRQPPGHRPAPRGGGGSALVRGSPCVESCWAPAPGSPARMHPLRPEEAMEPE

[4] = target: Serine/threonine-protein kinase Chk2 (Homo sapiens, UniProt O96017)
[5] = target: Dual specificity protein kinase CLK3 (Homo sapiens) (UniProt P49761)
Sequence of Dual specificity protein kinase CLK3 (Homo sapiens) (P49761 whole entry, looked up, canonical isoform): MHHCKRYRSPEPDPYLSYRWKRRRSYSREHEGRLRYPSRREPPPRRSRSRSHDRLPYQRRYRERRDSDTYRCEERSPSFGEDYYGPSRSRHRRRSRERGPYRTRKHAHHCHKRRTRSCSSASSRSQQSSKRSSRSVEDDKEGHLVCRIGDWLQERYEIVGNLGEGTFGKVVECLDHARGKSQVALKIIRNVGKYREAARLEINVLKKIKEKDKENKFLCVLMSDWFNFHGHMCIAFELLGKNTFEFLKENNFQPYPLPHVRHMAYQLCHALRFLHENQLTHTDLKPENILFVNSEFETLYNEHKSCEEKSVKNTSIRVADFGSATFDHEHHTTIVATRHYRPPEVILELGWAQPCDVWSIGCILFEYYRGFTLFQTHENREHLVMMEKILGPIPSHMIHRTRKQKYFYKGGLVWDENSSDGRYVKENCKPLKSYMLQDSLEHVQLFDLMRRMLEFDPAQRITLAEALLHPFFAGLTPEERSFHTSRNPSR

[6] = target: Casein kinase I isoform gamma-2 (Homo sapiens) (UniProt P78368)
Sequence of Casein kinase I isoform gamma-2 (Homo sapiens) (P78368 whole entry, looked up, canonical isoform): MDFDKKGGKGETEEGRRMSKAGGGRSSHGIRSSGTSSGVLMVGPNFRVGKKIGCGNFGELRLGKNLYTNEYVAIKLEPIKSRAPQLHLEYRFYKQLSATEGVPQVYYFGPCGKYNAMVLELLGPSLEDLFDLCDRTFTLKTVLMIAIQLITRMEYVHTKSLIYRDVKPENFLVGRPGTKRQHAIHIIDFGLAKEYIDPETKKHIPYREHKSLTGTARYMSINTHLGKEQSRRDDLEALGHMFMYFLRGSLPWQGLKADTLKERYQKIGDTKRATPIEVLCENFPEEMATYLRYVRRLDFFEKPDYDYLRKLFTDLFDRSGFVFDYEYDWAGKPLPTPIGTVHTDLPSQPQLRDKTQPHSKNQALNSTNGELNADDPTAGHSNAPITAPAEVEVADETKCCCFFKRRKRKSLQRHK

[7] = target: T1, Dual specificity mitogen-activated protein kinase kinase 6 (Homo sapiens) (UniProt P52564)
T1 sequence (whole entry): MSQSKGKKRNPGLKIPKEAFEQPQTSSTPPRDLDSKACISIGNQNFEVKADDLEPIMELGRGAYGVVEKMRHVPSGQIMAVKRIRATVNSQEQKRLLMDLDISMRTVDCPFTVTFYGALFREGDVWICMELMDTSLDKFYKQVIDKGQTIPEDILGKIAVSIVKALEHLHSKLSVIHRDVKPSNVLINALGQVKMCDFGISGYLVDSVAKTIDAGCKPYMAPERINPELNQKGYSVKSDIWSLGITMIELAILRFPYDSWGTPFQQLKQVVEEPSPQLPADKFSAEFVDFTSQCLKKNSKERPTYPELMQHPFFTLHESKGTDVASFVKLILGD

[8] = target: Serine/threonine-protein kinase Nek6 (Homo sapiens) (UniProt Q9HC98)
Sequence of Serine/threonine-protein kinase Nek6 (Homo sapiens) (Q9HC98 whole entry): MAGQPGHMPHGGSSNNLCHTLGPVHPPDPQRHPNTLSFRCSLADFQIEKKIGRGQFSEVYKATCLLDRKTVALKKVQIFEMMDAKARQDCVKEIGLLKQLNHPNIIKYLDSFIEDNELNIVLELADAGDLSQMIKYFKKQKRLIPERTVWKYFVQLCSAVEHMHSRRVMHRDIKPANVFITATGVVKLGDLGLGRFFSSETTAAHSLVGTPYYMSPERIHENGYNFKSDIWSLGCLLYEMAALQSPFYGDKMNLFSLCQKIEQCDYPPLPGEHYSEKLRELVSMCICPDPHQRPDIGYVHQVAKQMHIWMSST

[9] = target: Serine/threonine-protein kinase PAK 6 (Homo sapiens) (UniProt Q9NQU5)
Sequence of Serine/threonine-protein kinase PAK 6 (Homo sapiens) (Q9NQU5 whole entry, looked up): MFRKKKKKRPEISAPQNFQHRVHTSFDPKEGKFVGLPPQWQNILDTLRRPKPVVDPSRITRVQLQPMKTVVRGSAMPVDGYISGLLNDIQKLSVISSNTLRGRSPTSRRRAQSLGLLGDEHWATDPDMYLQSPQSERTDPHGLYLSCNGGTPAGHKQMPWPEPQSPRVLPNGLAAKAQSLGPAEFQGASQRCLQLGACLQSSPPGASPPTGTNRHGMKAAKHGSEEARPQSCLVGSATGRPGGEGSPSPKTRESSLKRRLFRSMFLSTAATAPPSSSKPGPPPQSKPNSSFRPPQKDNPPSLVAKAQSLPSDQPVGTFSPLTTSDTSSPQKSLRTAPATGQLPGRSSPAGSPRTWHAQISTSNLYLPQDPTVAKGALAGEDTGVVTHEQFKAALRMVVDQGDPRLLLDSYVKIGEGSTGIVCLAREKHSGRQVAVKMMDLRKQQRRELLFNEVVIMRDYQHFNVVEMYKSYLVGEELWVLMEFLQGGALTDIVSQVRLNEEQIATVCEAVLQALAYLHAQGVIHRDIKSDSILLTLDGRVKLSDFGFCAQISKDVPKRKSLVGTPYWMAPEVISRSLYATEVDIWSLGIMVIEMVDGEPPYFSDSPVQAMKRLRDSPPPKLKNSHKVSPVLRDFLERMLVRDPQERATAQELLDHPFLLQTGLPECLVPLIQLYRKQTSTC

[10] = target: Serine/threonine-protein kinase pim-2 (Homo sapiens, UniProt Q9P1W9)
Sequence of Serine/threonine-protein kinase pim-2 (Q9P1W9 whole entry, looked up): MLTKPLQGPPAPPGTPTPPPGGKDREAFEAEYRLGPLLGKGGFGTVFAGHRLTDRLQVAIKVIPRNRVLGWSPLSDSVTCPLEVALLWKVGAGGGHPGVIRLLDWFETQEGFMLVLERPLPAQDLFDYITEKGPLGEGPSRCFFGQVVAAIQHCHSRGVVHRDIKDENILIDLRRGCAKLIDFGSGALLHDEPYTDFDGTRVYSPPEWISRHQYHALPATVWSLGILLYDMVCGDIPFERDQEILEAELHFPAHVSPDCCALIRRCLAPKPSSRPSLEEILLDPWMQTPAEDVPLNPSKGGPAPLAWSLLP

[11] = target: Serine/threonine-protein kinase PLK1 (Homo sapiens) (UniProt P53350)
[12] = target: cAMP-dependent protein kinase catalytic subunit alpha (Homo sapiens) (UniProt P17612)
[13] = target: STE20-like serine/threonine-protein kinase (Homo sapiens) (UniProt Q9H2G2)
Sequence of STE20-like serine/threonine-protein kinase (Homo sapiens) (Q9H2G2 whole entry, looked up): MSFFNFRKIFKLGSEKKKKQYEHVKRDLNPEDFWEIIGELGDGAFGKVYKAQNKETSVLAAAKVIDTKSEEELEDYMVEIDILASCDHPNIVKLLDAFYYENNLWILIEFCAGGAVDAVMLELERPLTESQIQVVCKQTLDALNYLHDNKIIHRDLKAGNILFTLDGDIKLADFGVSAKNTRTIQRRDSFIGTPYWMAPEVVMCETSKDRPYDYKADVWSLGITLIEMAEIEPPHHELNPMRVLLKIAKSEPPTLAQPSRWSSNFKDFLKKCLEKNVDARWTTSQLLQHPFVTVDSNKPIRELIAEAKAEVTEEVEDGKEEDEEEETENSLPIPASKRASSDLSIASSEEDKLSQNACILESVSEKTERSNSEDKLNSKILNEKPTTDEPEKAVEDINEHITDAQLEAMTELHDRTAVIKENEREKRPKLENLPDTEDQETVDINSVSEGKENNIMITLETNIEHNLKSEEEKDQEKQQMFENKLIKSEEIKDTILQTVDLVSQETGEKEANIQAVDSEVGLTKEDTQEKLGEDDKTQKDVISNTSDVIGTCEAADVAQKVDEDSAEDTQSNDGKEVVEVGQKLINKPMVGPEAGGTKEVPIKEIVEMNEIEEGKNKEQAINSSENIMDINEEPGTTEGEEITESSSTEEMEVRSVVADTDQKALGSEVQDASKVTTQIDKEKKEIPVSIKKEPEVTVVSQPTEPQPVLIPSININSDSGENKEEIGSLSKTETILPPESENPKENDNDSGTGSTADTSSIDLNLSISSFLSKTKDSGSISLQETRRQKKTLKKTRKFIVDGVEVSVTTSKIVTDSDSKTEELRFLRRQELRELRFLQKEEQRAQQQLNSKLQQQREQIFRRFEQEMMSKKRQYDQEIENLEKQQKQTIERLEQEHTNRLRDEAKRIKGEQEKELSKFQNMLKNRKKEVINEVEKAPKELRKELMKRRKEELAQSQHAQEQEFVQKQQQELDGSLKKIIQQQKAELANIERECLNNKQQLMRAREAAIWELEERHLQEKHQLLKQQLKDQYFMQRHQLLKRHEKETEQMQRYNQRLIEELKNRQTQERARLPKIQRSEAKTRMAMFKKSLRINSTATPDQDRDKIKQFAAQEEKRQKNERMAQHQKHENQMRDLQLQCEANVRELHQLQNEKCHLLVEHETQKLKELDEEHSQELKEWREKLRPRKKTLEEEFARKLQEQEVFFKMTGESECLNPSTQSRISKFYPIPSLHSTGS

[14] = target: Serine/threonine-protein kinase 10 (Homo sapiens) (UniProt O94804)
Sequence of Serine/threonine-protein kinase 10 (Homo sapiens) (O94804 whole entry, looked up): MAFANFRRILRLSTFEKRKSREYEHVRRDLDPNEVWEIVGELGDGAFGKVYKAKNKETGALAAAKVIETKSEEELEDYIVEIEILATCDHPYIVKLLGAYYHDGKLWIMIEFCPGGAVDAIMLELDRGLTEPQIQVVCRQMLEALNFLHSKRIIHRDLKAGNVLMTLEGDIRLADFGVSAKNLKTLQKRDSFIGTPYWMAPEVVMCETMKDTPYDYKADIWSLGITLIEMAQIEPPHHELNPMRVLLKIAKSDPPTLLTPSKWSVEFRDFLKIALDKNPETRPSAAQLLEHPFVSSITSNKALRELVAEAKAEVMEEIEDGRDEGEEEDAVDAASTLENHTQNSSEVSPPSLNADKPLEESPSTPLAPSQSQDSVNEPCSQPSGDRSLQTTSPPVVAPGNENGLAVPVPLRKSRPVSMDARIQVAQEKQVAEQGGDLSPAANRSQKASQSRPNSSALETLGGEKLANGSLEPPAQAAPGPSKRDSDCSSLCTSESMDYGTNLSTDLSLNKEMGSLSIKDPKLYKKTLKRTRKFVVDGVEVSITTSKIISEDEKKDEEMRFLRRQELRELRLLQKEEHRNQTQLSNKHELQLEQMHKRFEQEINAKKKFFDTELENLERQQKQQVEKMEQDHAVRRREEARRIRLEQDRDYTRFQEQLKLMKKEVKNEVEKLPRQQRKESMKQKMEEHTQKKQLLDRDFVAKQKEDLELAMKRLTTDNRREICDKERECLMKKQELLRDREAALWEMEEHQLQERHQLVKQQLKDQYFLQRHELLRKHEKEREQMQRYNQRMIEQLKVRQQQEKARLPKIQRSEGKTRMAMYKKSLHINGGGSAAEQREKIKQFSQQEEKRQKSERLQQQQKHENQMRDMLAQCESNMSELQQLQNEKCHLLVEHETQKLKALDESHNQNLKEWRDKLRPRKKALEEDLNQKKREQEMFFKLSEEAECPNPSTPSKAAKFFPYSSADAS

[15] = target: T2, Serine/threonine-protein kinase 17A (Homo sapiens) (UniProt Q9UEE5)
T2 sequence (whole entry): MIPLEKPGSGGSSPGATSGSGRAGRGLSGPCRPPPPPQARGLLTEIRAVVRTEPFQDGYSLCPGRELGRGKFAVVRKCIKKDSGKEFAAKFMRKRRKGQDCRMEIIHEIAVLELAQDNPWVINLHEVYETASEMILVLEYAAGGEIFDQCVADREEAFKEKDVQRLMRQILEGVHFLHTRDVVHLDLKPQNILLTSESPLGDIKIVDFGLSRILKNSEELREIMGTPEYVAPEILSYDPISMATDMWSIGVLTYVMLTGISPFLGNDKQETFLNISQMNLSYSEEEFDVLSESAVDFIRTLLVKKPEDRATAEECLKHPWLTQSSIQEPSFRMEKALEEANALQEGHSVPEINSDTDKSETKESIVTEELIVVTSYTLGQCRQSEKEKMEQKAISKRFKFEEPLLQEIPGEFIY

[16] = target: Serine/threonine-protein kinase 26 (Homo sapiens) (UniProt Q9P289)
[17] = target: T3, Lymphokine-activated killer T-cell-originated protein kinase (Homo sapiens) (UniProt Q96KB5)
T3 sequence (whole entry): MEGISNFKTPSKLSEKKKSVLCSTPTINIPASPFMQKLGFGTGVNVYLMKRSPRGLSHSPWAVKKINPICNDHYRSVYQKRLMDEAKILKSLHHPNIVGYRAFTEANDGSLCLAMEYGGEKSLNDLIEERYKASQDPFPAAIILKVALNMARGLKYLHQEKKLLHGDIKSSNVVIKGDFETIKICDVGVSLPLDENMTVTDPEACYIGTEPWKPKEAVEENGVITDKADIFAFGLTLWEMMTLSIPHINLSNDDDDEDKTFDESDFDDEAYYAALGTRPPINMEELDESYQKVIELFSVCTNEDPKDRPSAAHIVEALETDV

[18] = target: Vascular endothelial growth factor receptor 2 (Homo sapiens, UniProt P35968)
[19] = target: Epidermal growth factor receptor (Homo sapiens, UniProt P00533)

Compound	IC50 [1] [nM]	ΔTm [2] [°C]	ΔTm [3] [°C]	ΔTm [4] [°C]	ΔTm [5] [°C]	ΔTm [6] [°C]	ΔTm [7] [°C]	ΔTm [8] [°C]	ΔTm [9] [°C]	ΔTm [10] [°C]	ΔTm [11] [°C]	ΔTm [12] [°C]	ΔTm [13] [°C]	ΔTm [14] [°C]	ΔTm [15] [°C]	ΔTm [16] [°C]	ΔTm [17] [°C]	IC50 [18] [nM]	IC50 [19] [nM]
CC(C)(C)c1cc(C=C2C(=O)C=CC2=O)cc(C(C)(C)C)c1O	2200	0.3	-0.8	1.8	0.1	0.5	-2.5	0.2	-2.5	-5.7	1.1	0.8	0.9	0.4	-5.3	0	-0.1	–	–
CC(C)c1cc(/C=C(\C#N)C(=O)NCCCc2ccccc2)cc(C(C)C)c1O	–	0.6	1	-0.1	1.2	0.5	0.3	0.9	0.1	0.7	0.4	0.5	1.2	-0.1	0.8	2.5	-0.2	700	–
C[C@@H](N)[C@H]1CC[C@H](C(=O)Nc2ccncc2)CC1	–	-0.3	-0.8	-0.7	1	0.6	-0.1	0	-0.2	0.6	-0.2	0.4	0.2	1.2	1.3	0.3	0.9	–	–
Nc1nccc(-c2c(-c3ccc(F)cc3)ncn2C2CCNCC2)n1	–	0.4	0.1	0.1	0.1	2	0.2	-0.2	-0.5	0.2	0.1	0.7	1.1	1.5	0.4	2.1	0.5	–	–
Cc1cc2ncc(-c3ccccc3)nc2cc1C	–	1	-0.4	-0.3	0	0.5	0.3	0.2	0	0.4	0.7	1.1	0.4	1	1.5	1.2	-0.6	–	–
O=c1sn(Cc2ccccc2)c(=S)n1Cc1ccccc1	–	0.3	-1.2	0.3	-0.3	0.2	0.1	0.1	0.1	-0.2	1.3	0.4	0.4	0.9	0.2	0.5	-0.4	–	–
CC(C)(C)c1nc2c3ccc(F)cc3c3c(=O)[nH]ccc3c2[nH]1	–	2.6	1.3	14.1	2.4	0.7	6	0.3	2.3	5.1	11.9	2.6	1.8	6.4	13.7	3.6	-0.6	–	–
C#Cc1cccc(Nc2ncnc3cc(OCCOC)c(OCCOC)cc23)c1	–	0	0.1	0.4	0.9	-0.1	0.2	-0.7	-0.1	0	1.6	0	8.2	0	0.3	0.6	0.7	–	–
COc1cc2ncnc(Nc3ccc(F)c(Cl)c3)c2cc1OCCCN1CCOCC1	–	0.3	0.7	3.1	0.8	-0.2	0.1	-0.4	0	0.6	1.2	1.1	7.8	0	0.6	1.2	0.6	–	–
O=c1ccc2ccc(O)c(O)c2o1 [DAPHNETIN]	–	0.4	0.5	-0.1	0.1	0.1	0.1	-0.3	-0.2	0.7	-0.1	0.6	0.1	-0.5	0.4	-0.2	-0.4	–	7670
Cn1cc(C2=C(c3cn(CCCN)c4ccccc34)C(=O)NC2=O)c2ccccc21	–	2.6	-0.1	5.9	3.5	0.3	0.8	-0.4	4.5	5.6	0.2	2.6	7.6	6.7	4.6	-0.2	-0.8	–	–
Cn1cc(C2=C(c3cn(CCCSC(=N)N)c4ccccc34)C(=O)NC2=O)c2ccccc21	–	4.2	0.1	7	4.1	0.7	0.9	-1	3.1	5.6	0.3	4.4	10.6	7.5	4.3	-0.6	-0.1	–	–
Nc1n[nH]c2nnc(-c3c(-c4ccccc4)nn4ccccc34)cc12	–	-0.4	0.3	0.9	0.3	0	0.2	0.3	0.1	0.6	-0.3	0.3	0.7	-0.2	0.8	-0.1	0.2	–	–
Oc1cccc(-c2nc(N3CCOCC3)c3oc4ncccc4c3n2)c1	–	-0.3	-0.3	1.4	0	0.1	0	0.4	0.7	0.1	0.3	0.8	0.3	-0.4	1.5	0.9	0.5	–	–
COc1cc2ncnc(Nc3cccc(Br)c3)c2cc1OC	–	0.5	1.4	2	0.2	0.6	0.4	0.5	0.1	0.9	-0.3	0.4	6.9	7.4	3.3	0.6	0.3	–	–
